This is an account of results in patent publication US7049321B2, “Methods and pharmaceutical compositions for treatment of central and peripheral nervous system disorders and compounds useful therefor” (Israel Institute for Biological Research, priority 2002, dated 2006).

Data set [1] concerns Rat pheochromocytoma cells transfected with M1 mAChR. It is filed as cell-based. The note with it: for Cell death induced by β-A25-35: β-A25-35 (1 μM), 24 hrs, serum-deprived. The method, then:
Confluent rat pheochromocytoma cells transfected with the M1 mAChR cultures were detached with trypsin, washed and plated in 24-well, 6-well, 60-mm or 100-mm plates that were precoated with rat tail collagen (Sigma, Israel). Several experiments were performed in serum-free medium. For 3-(4,5-dimethylthiazol-2-yl)-2,5-diphenyl-tetrazolium bromide (MTT) assay, cells (1.5×10^4) were plated in 96-well collagen-precoated plates, in serum-free medium, with or without various drugs for 24 hours. For differentiation, cells were grown in the presence of 1% FCS and 1% HS, with addition of 50 ng/ml NGF for 7 days, to cause full differentiation. […] After 7 days, cells were washed and the medium was either replaced to serum-free, or cells were detached and replated in serum-free medium. Cells in serum-free medium were treated either with Aβ peptides that were previously “aged” or with H2O2. Tested compounds were added together with the insults for the indicated time, unless otherwise stated.
Cells were plated in 96-well plates in 100 μl medium. After exposure to various treatments, 10 μl of 5 mg/ml MTT [3-(4,5-dimethylthiazol-2-yl)-2,5-diphenyl-tetrazolium bromide; Sigma, Israel] solution in phosphate-buffered saline (PBS) was added to each well. Plates were incubated for 2 hrs at 37° C. followed by hydrocholoric acid-isopropanol addition (100 μl of 0.04N HCl/isopropanol). Plates were read using ELISA reader at a wavelength of 570 nm.
The MTT assay measures primary early changes within the cells, reflecting the integrity of the electron transport chain and provides a readout of cellular redox activity. This test is a specific, early indicator of the mechanism of β-amyloid-mediated cell death and can be used to detect rapid inhibitory response.

Data set [2] shares this test system. The data set can be described thus: Neurite outgrowth response. Type of data set: cell-based. The note with it: for Emax: Rattus norvegicus, read-out: Maximal response, percent of cells with neurites. On the procedure:
Rat pheochromocytoma cells transfected with M1 mAChR cells were grown as described in Gurwitz et al, (NeuroReport 6, 485,1995). For determination of neurite outgrowth, cells plated in six-well plates were used 3–5 days after-plating. Growth factors were added 1 day after plating and muscarinic agonists were added for the last 24 hrs.
Cells were observed under an inverted microscope. The percent of cells with neurite longer than cell diameter were scored in three random fields of several hundred cells from each well. Results were expressed as a percent of cells with neurites. Treatments were performed in triplicate cells. Both NGF (50 ng/ml) and EGF (100 ng/ml) were added 1 day after plating. Muscarinic agonists were added 24 hours before scoring.

In another data set the target is T1, M1 mAChR (Rattus norvegicus, UniProt P08482).
T1 construct: expressed in transfected cells; elsewhere rat pheochromocytoma cells
T1 sequence (P08482 1-460): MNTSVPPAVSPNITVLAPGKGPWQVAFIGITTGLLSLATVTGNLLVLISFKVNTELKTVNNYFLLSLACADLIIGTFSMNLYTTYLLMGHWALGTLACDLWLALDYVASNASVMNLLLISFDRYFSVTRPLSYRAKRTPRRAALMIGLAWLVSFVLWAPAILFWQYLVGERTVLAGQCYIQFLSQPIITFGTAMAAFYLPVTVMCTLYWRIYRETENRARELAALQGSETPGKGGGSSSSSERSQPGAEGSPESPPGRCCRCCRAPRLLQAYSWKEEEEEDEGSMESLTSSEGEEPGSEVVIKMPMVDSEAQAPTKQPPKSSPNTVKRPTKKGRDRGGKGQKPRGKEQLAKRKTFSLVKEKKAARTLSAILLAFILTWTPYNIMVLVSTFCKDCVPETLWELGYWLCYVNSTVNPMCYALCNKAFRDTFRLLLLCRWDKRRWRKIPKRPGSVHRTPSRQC
The data set can be described thus: α-APPs secretion in cell cultures stably transfected with the M1 mAChR. It is filed as cell-based. The note with it: for Emax: read-out: α-APPs secretion, % of maximal response of carbachol. The method, then:
Cells were plated in 6 well culture plates and used at the age of 3–5 days after plating. […] Cells exposed to medium alone are referred as controls.
Cell supernatants were collected into Eppendorff tubes containing a cocktail of protease inhibitors (5 units/ml aprotinin, […], […] and 10^−4M Phenylmethylsulfonylfluoride (PMSF, a protease inhibitor); Sigma, USA). The collected media were concentrated with Centricon tubes (Amicon, Beverly, Mass., USA) and kept frozen for α-APPs secretion determination. Equal amounts of protein (50–100 μg) were loaded and separated on 10% sodium dodecyl sulfate-polyacrylamide gel electrophoresis (SDS-PAGE). Followed by western blotting onto nitrocellulose membrane, blocked by fat-free milk, and probed for 24 hours at 4° C., with anti-Alzheimer's precursor protein, A4 monoclonal antibody 22C11 (0.25 μg/ml; Boehringer Mannheim, Germany). The nitrocellulose membranes were washed and incubated for 2 hours at room temperature with peroxidase-linked goat anti-mouse IgG antibodies (Jackson Immunoresearch, USA), followed by extensive washout and staining with enhanced chemiluminescence detection system (Amersham). Quantitative evaluation of the immunoreactive bands, on the exposed films, was performed by video-imaging densitometry (Gel-aid software; Galai Co., Israel). APPs levels were expressed as x-fold increase over basal levels.

Data set [3] is described as follows: Pharmacokinetic study in rats. Type of data set: in vivo. The following applies: rat; for biovailability in rats: in vivo; for AUC(0-inf) / Cmax / MRT / Tmax / half-life: plasma, Rats. The text has this:
The results of the PK profile of AF292 in rats and Beagle dogs (overnight fasting; drug administered in water solution; gavage) are listed in Table 1.

Another data set has as its system trihexyphenidyl rats. The data set can be described thus: Passive avoidance in trihexyphenidyl-treated rats. Type of data set: in vivo, Wistar rats. The note with it: for Retention latency: 24 h; for Effect on passive avoidance: AF292 0.03, 0.05, 0.1, 0.3, 0.5 mg/kg p.o., AF267B 0.5, 1, 5; for MED: p.o. An excerpt:
Trihexyphenidyl is a selective M1 muscarinic antagonist that crosses the blood brain barrier and induces memory and learning impairments (Bymaster et al. J Pharmacol Exp Ther 267: 16–24, 1993. Roldan et al Neurosci. Lett. 230: 93–96, 1997; Kimura et al Brain Res. 834: 6–12, 1999).
Naive Wistar rats were used in the experiments below. The passive avoidance (PA) task is comprised of training (acquisition) phase and a retention phase. In the training procedure each rat was individually placed in the small illuminated compartment and after 60 sec. of familiarization/adaptation, the door to the large compartment was opened and the latency to enter was measured (Initial Latency). Immediately following entry into the dark compartment, the door was closed and inescapable foot shock (0.6 mA for 3 sec) was delivered through the grid floor. A cutoff point of 180 sec was used for initial latency. […] After the acquisition trial the rat was returned to its home cage. Retention of the passive avoidance task was measured 24 h later, by again placing the rat in the light compartment and after a 60 sec adaptation interval, the door was opened and the latency to re-enter the dark compartment was measured. A cutoff point of 300 sec was used for retention latency.

Data set [4] relates to cells transfected with M1 mAChR. The data set can be described thus: Protection from H2O2-induced toxicity. It is filed as cell-based, rat.
The mark [5] stands for this setting: oral, extrapolated for 10 mg/kg.

SMILES strings stand for the structures. “Also recorded” adds a separate entry of the source.

In the case of `CC1=NCC2(CCN(C)CC2)S1` [AF150(S), 2,8-Dimethyl-1-thia-3,8-diaza-spiro[4.5]dec-2-ene], in data set [1], the “Cell death induced by β-A25-35” value is given as “significantly attenuated”. Moreover, the Emax turned out to be 30% in data set [2] and 50% on M1 mAChR. The biovailability in rats in data set [3] came out at 31%. Besides, the Retention latency in the data set on trihexyphenidyl rats (5 mg/kg p.o.) stood at 222 ± 25.6 s. In data set [4], the “Protection from H2O2-induced toxicity” value was “protect the cells”.

As to `CC[C@@H]1SC2(CCN(C)CC2)NC1=O` [AF267B, (S)-2-ethyl-8-methyl-1-thia-4,8-diaza-spiro[4.5]decan-3-one], in data set [1], the “MTT assay against Aβ 25–35 & H2O2 in cell cultures transfected with rat M1 mAChR” value is listed as 100% and the “Cell death induced by β-A25-35” value is “significantly attenuated”. Moreover, the Emax in data set [2] stood at 60%. Moreover, at M1 mAChR, the midpoint of the response, the EC50, lay at 3 µM; the “α-APPs secretion, % of maximal response of carbachol” value is “equal to maximal response of carbachol”; the Emax worked out at 100%. Also, the “α-APPs secretion, fold increase over control” value at M1 mAChR (10^−4M, maximal increase) was “about 6 fold”. Moreover, in data set [3] (setting [5]), the AUC(0-inf) was 1550 ng·h/mL and the Cmax is 1700 ng/mL. Further, in data set [3] (po, 5 mg/kg), the AUC(0-inf) worked out at 773 ng·h/mL, the Cmax was 852 ng/mL, the MRT stood at 60 min and the Tmax was determined as 15 min. The compound further showed a half-life in data set [3] (po, 5 mg/kg) of 38.4 min. Further, the Retention latency in the data set with trihexyphenidyl rats (0.5 mg/kg p.o.) is 181.1 ± 35.4 s. In the data set with trihexyphenidyl rats (1 mg/kg p.o.), this compound displayed a Retention latency of 290.1 ± 8.5 s. Also, in the data set with trihexyphenidyl rats, the “Effect on passive avoidance” value is 0.5, 1, 5 positive effects and the MED entry is “MED 0.1–0.5 mg/kg, p.o”. Also, the “Protection from H2O2-induced toxicity” value in data set [4] is recorded as “protect the cells”.

With `CC[C@@H]1SC2(CCNCC2)NC1=O` [AF292, (S)-2-Ethyl-1-thia-4,8-diaza-spiro[4.5]decan-3-one], in data set [1], the “MTT assay against Aβ 25–35 & H2O2 in cell cultures transfected with rat M1 mAChR” value was “Equipotent with AF267B & CCh at 100 μM; Even” and the “Cell death induced by β-A25-35” value is recorded as “significantly attenuated”. The Neurotrophic effect result in data set [2] (blocked by atropine) is “neurotrophic”. For the same compound, on M1 mAChR, a half-maximal effect (EC50) was put at 3 µM; the “α-APPs secretion, comparison in words” value is on record as “as effective as AF267B; also recorded: Equipotent with AF267B &”; the Emax was determined as 100%. Besides, the biovailability in rats in data set [3] was determined as 49%. In data set [3] (po, 10 mg/kg), the AUC(0-inf) was 2150 ng·h/mL, the Cmax came out at 1910 ng/mL, the mean residence time MRT was determined as 90 min and the Tmax amounted to 30 min. The half-life in data set [3] (po, 10 mg/kg) is 59.4 min. Further, in the data set on trihexyphenidyl rats, the “Effect on passive avoidance” value is listed as “positive effects” and the MED is under 0.03 mg/kg. Also, in the data set with trihexyphenidyl rats (rat, in vivo), the Duration of action result is recorded as “LONG DURATION OF ACTION” and the “Potency among the tested agonists” value is recorded as “most potent compound among the tested agonists”. Also, the “Protection from H2O2-induced toxicity” value in data set [4] was “protect the cells”.

As usually defined, the EC50 is the concentration needed to bring the measured effect to its halfway point. Higher therefore signals weaker potency. As a reminder, the AUC(0-inf) is the area under the concentration-time curve extrapolated to infinity. What is called Cmax is the highest concentration seen after dosing. Broadly, the MRT is the average time that molecules of a dose stay in the body. What is called Tmax is the time at which the peak concentration occurs. The half-life is the time needed for the level to fall by half in the phase considered. The low end stands for rapid decline, the high end for slow decline.
